Values quoted from earlier work in patent publication US7446116B2, “Montelukast amantadine salt” (Synthon BV, priority 2006, dated 2008).
Counter-ions that a name gives are not always drawn.

Key:
human patient = conditions: doses of at least 200 mg per day
rats = conditions: oral administration

| SMILES | safety for a human patient (human patient) | toxicity, expressed as LD50 value (rats) |
| --- | --- | --- |
| NC12CC3CC(CC(C3)C1)C2 [amantadine hydrochloride] | safe and nontoxic |  |
| CC(C)(C)N [tert.butyl amine] |  | 44 mg/kg |
